Test results as given in patent US9504666B2, “Chloroprocaine-based pharmaceutical composition for repeated intrathecal administration” (SINTETICA S.A., priority 2012, dated 2016).
Read-outs that look alike come from different tables or passages of the source.

Tests used:
rats [1] = settings: rat, in vivo
Protocol: (§1) A pre-clinical trial was carried out to assess the neurotoxicity of 2-chloroprocaine by intrathecal administration in repeated doses using a saline solution as control.
(§2) A first group of six rats was repeatedly treated with 20 μl of an injectable saline solution by intrathecal administration once a day.

[2] = in particular in form of hydrochloride; cited from earlier work
[3] = cited from earlier work
rats [4] = assay: Tail flick latency after repeated intrathecal doses; settings: for tail flick latency before injecting: before the daily 20 μl intrathecal injection
Protocol: The data are presented as ±SEM average of 6 rats;
as §1, §2

rats [5] = assay: Behaviour observation in the pre-clinical neurotoxicity trial with repeated intrathecal doses; settings: for changes in behavior: 7 consecutive days
Protocol: as §1, §2

rats [6] = settings: rat, in vivo; remark: listed apart in the source
Protocol: as §1, §2

rat = settings: in vivo rat models, intrathecal, equipotent concentrations, versus lidocaine; cited from earlier work
rats [7] = assay: Motor function score after repeated intrathecal doses; settings: 20 μl of 0.5% solution intrathecally once a day, 7 consecutive days
Protocol: as §1, §2

[8] = Body weight variation after repeated intrathecal doses; settings: rats, 20 μl of 0.5% solution intrathecally once a day, 7 consecutive days
Protocol: as §1, §2

[9] = tested on: conus medullaris (cauda equina); assay: Histological nerve injury score of 10 mm caudal portion of conus medullaris (cauda equina); settings: 0.5% solution
[10] = cited from earlier work; remark: listed apart in the source
[11] = 20 μl of 0.5% solution intrathecally, chloroprocaine not significant, bupivacaine P<0.001
[12] = rats, 20 μl of 0.5% solution intrathecally once a day

In the case of CCN(CC)CCOC(=O)c1ccc(N)cc1Cl [2-chloroprocaine, 2-(diethylaminoethyl) 4-amino-2-chlorobenzoate], the “motor functions (score)” value (rats [1]) is given as “remained unchanged”, the lasting of effect [2] is given as 30 to 60 min and the onset [2] is given as 5 to 15 min. For the same molecule, the half-life ([3]; offset by plasma pseudo cholinesterase) was “lower than one”, the plasma half-life ([3]; plasma) was 45 to 60 s and the “tail flick latency before injecting” value (rats [4]; 0.5% solution) was “comparable with the values of rats treated with vehicle”. The “tail flick latency before injecting” value (rats [4]; 1% solution) was “comparable with the values of rats treated with vehicle”, the “tail flick latency before injecting” value (rats [4]; 2% solution) was “comparable with the values of rats treated with vehicle” and the “tail flick latency 20 minutes after injection” value (“tail flick latency 20 minutes” below) (rats [4]; [11]) was “slight increase”. For the same molecule, the “tail flick latency 20 minutes” value (rats [4]; 20 μl of 1% solution intrathecally, P<0.05) was “significant increase”, the “tail flick latency 20 minutes” value (rats [4]; 20 μl of 2% solution intrathecally, P<0.001) was “significant increase” and the changes in behavior (rats [5]; [12]) was “No appreciable changes in behavior”. For the same molecule, the changes in behavior (rats [5]; rats, 20 μl of 1% solution intrathecally once a day) was “No appreciable changes in behavior”, the changes in behavior (rats [5]; rats, 20 μl of 2% solution intrathecally once a day) was “No appreciable changes in behavior” and the “tolerability compared with other administered concentrations” value (rats [5]; rats, repeated intrathecal, 2-chloroprocaine 2%, bupivacaine 0.5%) was “less tolerated”. The “neurotoxicity of repeated intrathecal administration” value (rats [5]; repeated intrathecal administration) was “does not determine detectable neurotoxicity”.
For CCCCN1CCCCC1C(=O)Nc1c(C)cccc1C (stereo not drawn) [bupivacaine], the “tolerability compared with other administered concentrations” value (rats [6]) is given as “less tolerated”, the “morphological damage and functional worsening” value (rat) is given as “less severe morphological damage and functional worsening than lidocaine” and the “tail flick latency before injecting” value (rats [4]; 0.5% solution) is given as “comparable with the values of rats treated with vehicle”. The “tail flick latency 20 minutes” value (rats [4]; [11]) was “significant increase”, the “motor functions (score)” value (rats [7]) was “two rats on the sixth day and three rats on the seventh day showed bilateral limbic weakness which influenced perambulation (score 2)” and the body weight [8] was “decreased”. The “moderately inflammatory infiltrate in some fibers, number of rats” value ([9]; group of 6 rats, 7 days repeated intrathecal) was “one”, the “histological score (nerve injury score 0 to 3)” value ([9]; rats, 20 μl intrathecally once a day for 7 days, ±SEM of 6 rats, vehicle 0.809±0.067) was 0.979±0.110 and the changes in behavior (rats [5]; [12]) was “modest sleepiness in one rat on the fifth day and in two rats on the sixth and seventh days”.
In the case of CCN(CC)CC(=O)Nc1c(C)cccc1C [lidocaine], the “transient neurologic syndrome (TNS)” value ([10]; use in spinal anesthesiological practice, Pollock 2002) is listed as “associated to the onset of transient neurologic syndrome (TNS)”.
For CCN(CC)CCOC(=O)c1ccc(N)cc1 [procaine], the “percentage of cases refractory to local anesthesia” value ([10]; spinal anesthesia, Hodgson et al. 2000) is given as 17%.
